Source: PubChem BioAssay (NCI)
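In this assay, cells in 96-well plates receive the compound at five concentrations for 48 hours. Endpoints are linearly interpolated between the surrounding concentrations. At the GI50, growth is halved. TGI denotes the concentration required for complete inhibition of growth.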

Tests used:
Assay in all cases: NCI tumour cell line growth inhibition, 48 h
786-0 renal = system: 786-0 renal
A498 renal = system: A498 renal
A549 NSCLC = system: A549 NSCLC
ACHN renal = system: ACHN renal
BT-549 breast = system: BT-549 breast
CAKI-1 renal = system: CAKI-1 renal
CCRF-CEM leukemia = system: CCRF-CEM leukemia
COLO 205 colon = system: COLO 205 colon
DU-145 prostate = system: DU-145 prostate
EKVX NSCLC = system: EKVX NSCLC
HCC-2998 colon = system: HCC-2998 colon
HCT-15 colon = system: HCT-15 colon
HL-60(TB) leukemia = system: HL-60(TB) leukemia
HOP-62 NSCLC = system: HOP-62 NSCLC
HOP-92 NSCLC = system: HOP-92 NSCLC
HS 578T breast = system: HS 578T breast
HT29 colon = system: HT29 colon
K-562 leukemia = system: K-562 leukemia
KM12 colon = system: KM12 colon
LOX IMVI melanoma = system: LOX IMVI melanoma
M14 melanoma = system: M14 melanoma
MALME-3M melanoma = system: MALME-3M melanoma
MCF7 breast = system: MCF7 breast
MDA-MB-231 breast = system: MDA-MB-231 breast
MDA-MB-435 = system: MDA-MB-435
MOLT-4 leukemia = system: MOLT-4 leukemia
NCI-H226 lung = system: NCI-H226 lung
NCI-H23 lung = system: NCI-H23 lung
NCI-H460 lung = system: NCI-H460 lung
NCI/ADR-RES ovarian = system: NCI/ADR-RES ovarian
OVCAR-3 ovarian = system: OVCAR-3 ovarian
OVCAR-4 ovarian = system: OVCAR-4 ovarian
OVCAR-5 ovarian = system: OVCAR-5 ovarian
OVCAR-8 ovarian = system: OVCAR-8 ovarian
PC-3 prostate = system: PC-3 prostate
RPMI-8226 leukemia = system: RPMI-8226 leukemia
RXF 393 renal = system: RXF 393 renal
SF-268 CNS = system: SF-268 CNS
SF-295 CNS = system: SF-295 CNS
SF-539 CNS = system: SF-539 CNS
SK-MEL-28 melanoma = system: SK-MEL-28 melanoma
SK-MEL-5 melanoma = system: SK-MEL-5 melanoma
SK-OV-3 ovarian = system: SK-OV-3 ovarian
SN12C renal = system: SN12C renal
SNB-19 CNS = system: SNB-19 CNS
SNB-75 CNS = system: SNB-75 CNS
SR leukemia = system: SR leukemia
SW-620 colon = system: SW-620 colon
T-47D breast = system: T-47D breast
TK-10 renal = system: TK-10 renal
U251 CNS = system: U251 CNS
UACC-257 melanoma = system: UACC-257 melanoma
UACC-62 melanoma = system: UACC-62 melanoma

CCOC(=O)C1=C(c2ccccc2)N(Cc2ccccc2)C2(O)C=CC(=O)C3C(=O)N(c4ccccc4)C(=O)C132 (stereo unspecified)
GI50 (786-0 renal): 2.11 µM
TGI (786-0 renal): 5.34 µM
GI50 (A498 renal): 1.62 µM
TGI (A498 renal): 3.12 µM
GI50 (A549 NSCLC): 2.96 µM
TGI (A549 NSCLC): 11.4 µM
GI50 (ACHN renal): 1.9 µM
TGI (ACHN renal): 4.23 µM
GI50 (BT-549 breast): 1.76 µM
TGI (BT-549 breast): 3.58 µM
GI50 (CAKI-1 renal): 3.08 µM
TGI (CAKI-1 renal): 9.71 µM
GI50 (CCRF-CEM leukemia): 1.53 µM
TGI (CCRF-CEM leukemia): 7.03 µM
GI50 (COLO 205 colon): 1.74 µM
TGI (COLO 205 colon): 3.45 µM
GI50 (DU-145 prostate): 1.65 µM
TGI (DU-145 prostate): 3.92 µM
GI50 (EKVX NSCLC): 2.43 µM
TGI (EKVX NSCLC): 6.51 µM
GI50 (HCC-2998 colon): 1.77 µM
TGI (HCC-2998 colon): 3.26 µM
GI50 (HCT-15 colon): 1.7 µM
TGI (HCT-15 colon): 3.67 µM
GI50 (HL-60(TB) leukemia): 1.8 µM
TGI (HL-60(TB) leukemia): 4.58 µM
GI50 (HOP-62 NSCLC): 2.67 µM
TGI (HOP-62 NSCLC): 6.56 µM
GI50 (HOP-92 NSCLC): 2.03 µM
TGI (HOP-92 NSCLC): 5.54 µM
GI50 (HS 578T breast): 3.46 µM
TGI (HS 578T breast): 18.3 µM
GI50 (HT29 colon): 1.93 µM
TGI (HT29 colon): 4.83 µM
GI50 (K-562 leukemia): 2.2 µM
TGI (K-562 leukemia): 8.79 µM
GI50 (KM12 colon): 1.74 µM
TGI (KM12 colon): 3.21 µM
GI50 (LOX IMVI melanoma): 1.34 µM
TGI (LOX IMVI melanoma): 2.67 µM
GI50 (M14 melanoma): 1.92 µM
TGI (M14 melanoma): 4.04 µM
GI50 (MALME-3M melanoma): 1.79 µM
TGI (MALME-3M melanoma): 3.34 µM
GI50 (MCF7 breast): 1.29 µM
TGI (MCF7 breast): 3.08 µM
GI50 (MDA-MB-231 breast): 2.2 µM
TGI (MDA-MB-231 breast): 4.98 µM
GI50 (MDA-MB-435): 1.95 µM
TGI (MDA-MB-435): 4.51 µM
GI50 (MOLT-4 leukemia): 1.89 µM
TGI (MOLT-4 leukemia): 5.01 µM
GI50 (NCI-H226 lung): 2.25 µM
TGI (NCI-H226 lung): 4.87 µM
GI50 (NCI-H23 lung): 2.12 µM
TGI (NCI-H23 lung): 5.59 µM
GI50 (NCI-H460 lung): 1.53 µM
TGI (NCI-H460 lung): 3.49 µM
GI50 (NCI/ADR-RES ovarian): 2.98 µM
TGI (NCI/ADR-RES ovarian): 17 µM
GI50 (OVCAR-3 ovarian): 2.11 µM
TGI (OVCAR-3 ovarian): 4.33 µM
GI50 (OVCAR-4 ovarian): 2.94 µM
TGI (OVCAR-4 ovarian): 10.8 µM
GI50 (OVCAR-5 ovarian): 3.23 µM
TGI (OVCAR-5 ovarian): 15.5 µM
GI50 (OVCAR-8 ovarian): 3.09 µM
TGI (OVCAR-8 ovarian): 17.5 µM
GI50 (PC-3 prostate): 2.67 µM
TGI (PC-3 prostate): 9.32 µM
GI50 (RPMI-8226 leukemia): 1.27 µM
TGI (RPMI-8226 leukemia): 4.35 µM
GI50 (RXF 393 renal): 1.91 µM
TGI (RXF 393 renal): 3.75 µM
GI50 (SF-268 CNS): 2.56 µM
TGI (SF-268 CNS): 8.08 µM
GI50 (SF-295 CNS): 2.9 µM
TGI (SF-295 CNS): 11.5 µM
GI50 (SF-539 CNS): 1.91 µM
TGI (SF-539 CNS): 3.76 µM
GI50 (SK-MEL-28 melanoma): 1.73 µM
TGI (SK-MEL-28 melanoma): 3.85 µM
GI50 (SK-MEL-5 melanoma): 1.49 µM
TGI (SK-MEL-5 melanoma): 2.93 µM
GI50 (SK-OV-3 ovarian): 3.29 µM
TGI (SK-OV-3 ovarian): 10.7 µM
GI50 (SN12C renal): 1.55 µM
TGI (SN12C renal): 4.9 µM
GI50 (SNB-19 CNS): 2 µM
TGI (SNB-19 CNS): 4.59 µM
GI50 (SNB-75 CNS): 2.1 µM
TGI (SNB-75 CNS): 4.62 µM
GI50 (SR leukemia): 1.17 µM
TGI (SR leukemia): 4.13 µM
GI50 (SW-620 colon): 1.81 µM
TGI (SW-620 colon): 3.91 µM
GI50 (T-47D breast): 1.67 µM
TGI (T-47D breast): 4.44 µM
GI50 (TK-10 renal): 2.71 µM
TGI (TK-10 renal): 7.24 µM
GI50 (U251 CNS): 1.51 µM
TGI (U251 CNS): 2.93 µM
GI50 (UACC-257 melanoma): 2.82 µM
TGI (UACC-257 melanoma): 8.06 µM
GI50 (UACC-62 melanoma): 1.63 µM
TGI (UACC-62 melanoma): 3.16 µM
